Laboratory results reported in patent publication US9775898B2, “Vaccine composition comprising an immunogenic protein and combination adjuvants for use in eliciting antigen-specific T-cell responses” (TheVax Genetics Vaccine Co., Ltd., priority 2015, dated 2017).

Key:
[1] = test system: E7 antigen specific immune response; experiment: Immunogenicity analysis of different immunogenic composition (humoral and cell mediated); format: in vivo; settings: mice
[2] = target: CD91 (Homo sapiens, UniProt Q07954); settings: read-out: binding affinity to CD91 (Kd); cited from earlier work
CD91, sequence (Q07954 20-4544, species assumed): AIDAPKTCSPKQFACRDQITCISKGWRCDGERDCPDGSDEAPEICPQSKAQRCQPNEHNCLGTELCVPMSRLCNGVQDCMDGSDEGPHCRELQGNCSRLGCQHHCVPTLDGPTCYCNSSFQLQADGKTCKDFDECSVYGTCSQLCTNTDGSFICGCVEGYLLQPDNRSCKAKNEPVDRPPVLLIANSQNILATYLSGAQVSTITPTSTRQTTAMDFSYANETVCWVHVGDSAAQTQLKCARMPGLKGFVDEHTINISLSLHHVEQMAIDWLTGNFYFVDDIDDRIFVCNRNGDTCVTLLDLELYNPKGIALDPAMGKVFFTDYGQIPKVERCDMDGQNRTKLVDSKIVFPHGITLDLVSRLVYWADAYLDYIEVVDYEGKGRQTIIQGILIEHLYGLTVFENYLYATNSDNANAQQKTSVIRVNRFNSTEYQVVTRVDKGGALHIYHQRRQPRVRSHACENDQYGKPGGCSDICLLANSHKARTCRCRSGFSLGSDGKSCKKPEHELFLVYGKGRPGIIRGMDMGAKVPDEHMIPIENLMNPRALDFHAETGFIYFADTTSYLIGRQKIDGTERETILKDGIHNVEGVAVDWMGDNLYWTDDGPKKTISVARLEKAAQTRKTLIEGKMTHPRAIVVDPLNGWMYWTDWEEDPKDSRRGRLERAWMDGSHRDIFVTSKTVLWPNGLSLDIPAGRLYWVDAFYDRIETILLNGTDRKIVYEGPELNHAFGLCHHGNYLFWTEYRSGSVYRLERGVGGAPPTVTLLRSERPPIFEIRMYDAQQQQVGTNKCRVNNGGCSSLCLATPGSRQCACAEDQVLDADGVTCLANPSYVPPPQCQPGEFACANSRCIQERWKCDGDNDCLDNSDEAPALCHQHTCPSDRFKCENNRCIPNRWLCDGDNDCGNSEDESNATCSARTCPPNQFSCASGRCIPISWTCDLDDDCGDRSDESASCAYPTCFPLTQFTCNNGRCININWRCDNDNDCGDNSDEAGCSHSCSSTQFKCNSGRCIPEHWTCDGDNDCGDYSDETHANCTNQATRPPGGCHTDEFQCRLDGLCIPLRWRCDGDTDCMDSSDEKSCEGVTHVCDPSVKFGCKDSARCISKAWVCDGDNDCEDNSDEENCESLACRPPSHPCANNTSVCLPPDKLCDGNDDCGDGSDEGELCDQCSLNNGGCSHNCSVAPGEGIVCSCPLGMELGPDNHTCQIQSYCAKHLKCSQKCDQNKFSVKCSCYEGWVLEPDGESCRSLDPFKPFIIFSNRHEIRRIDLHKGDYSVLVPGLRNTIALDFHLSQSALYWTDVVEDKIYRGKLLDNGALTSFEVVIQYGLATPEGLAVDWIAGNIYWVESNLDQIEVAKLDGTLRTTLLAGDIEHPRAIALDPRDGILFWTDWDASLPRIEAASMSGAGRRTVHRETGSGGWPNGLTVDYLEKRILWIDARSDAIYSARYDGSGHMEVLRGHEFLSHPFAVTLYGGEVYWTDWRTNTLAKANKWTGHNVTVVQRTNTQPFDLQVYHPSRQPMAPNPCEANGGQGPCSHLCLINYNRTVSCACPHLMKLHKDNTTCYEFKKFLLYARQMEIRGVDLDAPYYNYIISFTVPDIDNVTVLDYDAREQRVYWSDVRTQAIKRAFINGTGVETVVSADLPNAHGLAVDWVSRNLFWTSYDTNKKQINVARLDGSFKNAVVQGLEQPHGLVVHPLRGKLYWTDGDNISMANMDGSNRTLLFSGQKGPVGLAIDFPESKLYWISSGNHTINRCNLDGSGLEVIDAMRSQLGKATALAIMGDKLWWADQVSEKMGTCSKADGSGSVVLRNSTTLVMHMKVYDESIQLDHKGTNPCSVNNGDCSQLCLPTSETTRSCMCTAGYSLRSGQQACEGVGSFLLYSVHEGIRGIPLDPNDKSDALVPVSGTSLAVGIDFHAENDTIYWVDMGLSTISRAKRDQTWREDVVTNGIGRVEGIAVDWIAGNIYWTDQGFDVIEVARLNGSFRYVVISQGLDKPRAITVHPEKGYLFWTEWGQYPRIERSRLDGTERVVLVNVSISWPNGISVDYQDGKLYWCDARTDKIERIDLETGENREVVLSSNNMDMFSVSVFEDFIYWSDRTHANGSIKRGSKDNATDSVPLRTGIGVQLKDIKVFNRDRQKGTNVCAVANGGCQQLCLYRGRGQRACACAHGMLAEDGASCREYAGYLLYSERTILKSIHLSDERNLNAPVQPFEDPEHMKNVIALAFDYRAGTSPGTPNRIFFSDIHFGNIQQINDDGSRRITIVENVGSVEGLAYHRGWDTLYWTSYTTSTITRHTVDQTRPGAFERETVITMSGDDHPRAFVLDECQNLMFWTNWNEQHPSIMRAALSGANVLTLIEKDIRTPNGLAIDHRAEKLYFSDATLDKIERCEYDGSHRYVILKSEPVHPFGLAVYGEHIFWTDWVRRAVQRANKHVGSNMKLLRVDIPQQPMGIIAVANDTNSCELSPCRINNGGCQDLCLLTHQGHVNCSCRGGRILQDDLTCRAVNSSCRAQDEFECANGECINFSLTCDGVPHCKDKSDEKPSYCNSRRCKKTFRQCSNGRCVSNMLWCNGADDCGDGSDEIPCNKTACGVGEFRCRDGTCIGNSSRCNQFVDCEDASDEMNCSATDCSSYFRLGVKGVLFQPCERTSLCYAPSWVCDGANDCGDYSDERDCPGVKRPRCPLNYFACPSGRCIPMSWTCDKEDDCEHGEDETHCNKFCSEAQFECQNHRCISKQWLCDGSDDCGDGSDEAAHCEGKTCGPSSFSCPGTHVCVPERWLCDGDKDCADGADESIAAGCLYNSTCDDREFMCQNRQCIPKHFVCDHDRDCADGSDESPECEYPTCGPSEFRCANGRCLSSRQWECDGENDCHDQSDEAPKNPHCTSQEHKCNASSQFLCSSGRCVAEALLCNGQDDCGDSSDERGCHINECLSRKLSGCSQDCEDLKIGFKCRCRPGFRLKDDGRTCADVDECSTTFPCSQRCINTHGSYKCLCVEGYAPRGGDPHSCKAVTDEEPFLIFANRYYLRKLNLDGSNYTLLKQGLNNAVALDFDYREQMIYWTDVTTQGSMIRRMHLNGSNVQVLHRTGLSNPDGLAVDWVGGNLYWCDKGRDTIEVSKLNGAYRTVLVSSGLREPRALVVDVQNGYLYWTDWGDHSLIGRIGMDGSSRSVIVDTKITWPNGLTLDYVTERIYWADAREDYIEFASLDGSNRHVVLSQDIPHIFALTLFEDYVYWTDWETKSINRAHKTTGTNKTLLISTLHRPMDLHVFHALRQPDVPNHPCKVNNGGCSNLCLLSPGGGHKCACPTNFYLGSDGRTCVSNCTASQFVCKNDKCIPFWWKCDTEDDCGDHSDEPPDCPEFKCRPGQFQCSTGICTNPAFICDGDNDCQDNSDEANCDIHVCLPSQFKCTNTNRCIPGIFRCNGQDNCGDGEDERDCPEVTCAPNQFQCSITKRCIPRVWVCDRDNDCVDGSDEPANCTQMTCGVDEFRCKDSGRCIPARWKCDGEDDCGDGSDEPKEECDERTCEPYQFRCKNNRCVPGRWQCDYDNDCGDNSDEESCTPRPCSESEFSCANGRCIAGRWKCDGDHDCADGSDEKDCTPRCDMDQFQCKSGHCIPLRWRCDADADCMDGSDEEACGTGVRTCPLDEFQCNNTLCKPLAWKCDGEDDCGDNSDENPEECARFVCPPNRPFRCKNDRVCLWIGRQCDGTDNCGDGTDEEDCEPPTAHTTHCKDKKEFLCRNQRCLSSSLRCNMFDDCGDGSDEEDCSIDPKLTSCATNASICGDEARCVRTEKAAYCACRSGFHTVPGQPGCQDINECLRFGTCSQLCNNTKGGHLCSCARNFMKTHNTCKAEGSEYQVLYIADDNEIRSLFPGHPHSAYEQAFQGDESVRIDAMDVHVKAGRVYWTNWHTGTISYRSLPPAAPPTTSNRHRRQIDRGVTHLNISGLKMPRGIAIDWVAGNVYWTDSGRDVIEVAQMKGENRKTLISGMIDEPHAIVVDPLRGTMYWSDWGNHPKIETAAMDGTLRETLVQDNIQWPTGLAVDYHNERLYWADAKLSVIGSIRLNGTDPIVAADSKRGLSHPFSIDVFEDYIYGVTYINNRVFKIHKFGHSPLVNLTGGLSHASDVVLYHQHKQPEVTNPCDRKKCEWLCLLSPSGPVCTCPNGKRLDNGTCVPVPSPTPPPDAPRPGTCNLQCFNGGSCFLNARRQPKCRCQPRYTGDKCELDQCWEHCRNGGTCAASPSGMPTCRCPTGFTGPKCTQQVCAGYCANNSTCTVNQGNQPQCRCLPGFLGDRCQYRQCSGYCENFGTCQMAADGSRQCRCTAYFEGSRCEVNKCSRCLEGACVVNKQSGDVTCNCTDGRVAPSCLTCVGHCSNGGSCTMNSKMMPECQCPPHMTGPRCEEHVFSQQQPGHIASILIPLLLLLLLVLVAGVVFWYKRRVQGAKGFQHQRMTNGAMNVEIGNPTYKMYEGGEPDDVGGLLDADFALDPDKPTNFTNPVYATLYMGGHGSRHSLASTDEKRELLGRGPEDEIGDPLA

QS-21 [reference compound]
adjuvant comparison for stimulating both humoral and cell mediated immune responses ([1]; with E7 immunogenic proteins, compared with alum): better adjuvants

E7 antigen: HPV16 E7 protein (full length), SEQ ID NO: 21, antigen itself only
E7 antigen specific cell mediated immune response ([1]; combined with GPI-0100 or QS-21): weak to strong

RAP1: 39 kDa ER resident protein and molecular chaperone for LDL receptor-related protein
Kd [2]: ~3 nM
